According to patent US9862688B2, “Hydrophobically tagged janus kinase inhibitors and uses thereof” (Dana-Farber Cancer Institute, Inc., priority 2014, dated 2018):

Key:
[1] = tested on: CMK (an Acute Megakaryoblastic Leukemia (AMKL) cell line); test: Cancer cell line proliferation analysis (CellTiter-Glo), CMK; format: cell-based; details: Homo sapiens; CMK cells, 72 hours at 37° C., cell viability; read-out: Cancer cell lines IC50 (nM) CMK
Description: (§1) Cell Proliferation Analysis
(§2) CellTiter-Glo® Luminescent cell viability assay (Promega) was used to assess cell survival following treatment with the compounds described herein. Cells were seeded into 384 well plates with the EL406 Combination Washer Dispenser (BioTek Instruments, Inc.), and the compounds were injected into the cells culture media with the JANUS Automated Workstation (PerkinElmer Inc.). Cells were treated with a series diluted inhibitors (20 to 0.04 μM) for 72 hours at 37° C. Luminescent measurement is performed using the 2104 Envision® Multilabel Reader (PerkinElmer Inc.). The cell lines employed include Ba/F3 (a murine interleukin-3 dependent pro-B cell line), NKL (a Natural Killer Cell Lymphoma (NKCL) cell line), CMK (an Acute Megakaryoblastic Leukemia (AMKL) cell line).

JAK3 = JAK3 (Homo sapiens (Human), UniProt P52333); test: INVITROGEN Select Screening in vitro kinase activity assay; format: biochemical; details: enzymatic
Sequence of JAK3 (P52333 whole entry): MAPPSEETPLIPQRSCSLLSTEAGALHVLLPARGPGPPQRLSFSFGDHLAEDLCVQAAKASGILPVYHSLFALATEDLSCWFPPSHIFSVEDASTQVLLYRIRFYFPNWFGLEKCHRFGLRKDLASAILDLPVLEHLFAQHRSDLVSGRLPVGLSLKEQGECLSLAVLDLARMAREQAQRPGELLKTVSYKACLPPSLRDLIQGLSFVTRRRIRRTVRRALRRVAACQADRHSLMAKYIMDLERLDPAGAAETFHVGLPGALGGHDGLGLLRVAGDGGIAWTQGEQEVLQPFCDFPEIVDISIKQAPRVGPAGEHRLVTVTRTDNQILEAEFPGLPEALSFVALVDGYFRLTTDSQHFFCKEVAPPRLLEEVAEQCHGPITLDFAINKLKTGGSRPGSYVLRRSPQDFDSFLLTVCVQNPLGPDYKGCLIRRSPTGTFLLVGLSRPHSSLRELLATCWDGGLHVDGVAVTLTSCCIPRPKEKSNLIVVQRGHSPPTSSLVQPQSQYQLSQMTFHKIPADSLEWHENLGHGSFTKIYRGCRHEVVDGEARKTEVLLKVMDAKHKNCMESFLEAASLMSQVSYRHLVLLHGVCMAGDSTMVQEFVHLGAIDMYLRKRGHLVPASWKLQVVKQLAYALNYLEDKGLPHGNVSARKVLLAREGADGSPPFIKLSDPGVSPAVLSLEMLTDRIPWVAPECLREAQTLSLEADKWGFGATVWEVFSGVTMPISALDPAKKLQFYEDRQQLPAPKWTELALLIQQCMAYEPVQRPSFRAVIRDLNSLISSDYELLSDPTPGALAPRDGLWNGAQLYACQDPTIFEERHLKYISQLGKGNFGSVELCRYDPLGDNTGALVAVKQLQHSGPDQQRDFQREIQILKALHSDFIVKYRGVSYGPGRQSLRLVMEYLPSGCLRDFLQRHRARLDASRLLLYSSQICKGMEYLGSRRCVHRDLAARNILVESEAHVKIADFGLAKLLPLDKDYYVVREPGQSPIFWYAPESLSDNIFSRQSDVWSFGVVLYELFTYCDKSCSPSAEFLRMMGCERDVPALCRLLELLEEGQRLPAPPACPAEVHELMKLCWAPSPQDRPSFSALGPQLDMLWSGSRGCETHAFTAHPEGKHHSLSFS
Text: The in vitro activity of the compounds described herein in inhibiting JAK3 and other kinases were obtained using an INVITROGEN Select Screening assay as known in the art.

Ba/F3 TYK2 = test: Ba/F3 cell proliferation analysis (CellTiter-Glo), TYK2; format: cell-based, murine; details: Mus musculus, BaF3; Ba/F3 cells, 72 hours at 37° C., cell viability
Description: as §1, §2

Ba/F3 JAK3 = test: Ba/F3 cell proliferation analysis (CellTiter-Glo), JAK3; format: cell-based, murine; details: Ba/F3 cells, 72 hours at 37° C., cell viability
Description: as §1, §2

[2] = tested on: NKL (a Natural Killer Cell Lymphoma (NKCL) cell line); test: Cancer cell line proliferation analysis (CellTiter-Glo), NKL; format: cell-based; details: NKL cells, 72 hours at 37° C., cell viability, read-out: Cancer cell lines IC50 (nM) NKL
Description: as §1, §2

Ba/F3 JAK1 = test: Ba/F3 cell proliferation analysis (CellTiter-Glo), JAK1; format: cell-based, murine; details: Mus musculus, BaF3; Ba/F3 cells, 72 hours at 37° C., cell viability
Description: as §1, §2

Ba/F3 ABL = test: Ba/F3 cell proliferation analysis (CellTiter-Glo), ABL; format: cell-based, murine; details: Mus musculus, Ba/F3 cells, 72 hours at 37° C., cell viability
Description: as §1
as §2, with “Luminescent measurement is performed using the 2104 Envision® Multilabel Reader (PerkinElmer Inc.).” left out

Ba/F3 JAK2 = test: Ba/F3 cell proliferation analysis (CellTiter-Glo), JAK2; format: cell-based, murine; details: Mus musculus, BaF3; Ba/F3 cells, 72 hours at 37° C., cell viability
Description: as §1
as §2, with “Luminescent measurement is performed using the 2104 Envision® Multilabel Reader (PerkinElmer Inc.).” left out

Compound | IC50 [1] | IC50 (JAK3) | IC50 (Ba/F3 TYK2) | IC50 (Ba/F3 JAK3) | IC50 (Ba/F3 JAK3; listed as compound 2) | IC50 [2] | IC50 (Ba/F3 JAK1) | IC50 (Ba/F3 ABL; BaF3) | IC50 (Ba/F3 JAK3; Mus musculus, BaF3, 72 h) | IC50 (Ba/F3 JAK2) | IC50 (Ba/F3 ABL; BaF3, 72 h, heading: Ba/F3 IC50 ABL)
C=CC(=O)Nc1cccc(CNc2nc(Nc3ccc(N4CCN(CCCNC(=O)CC5[C@H]6C[C@@H]7C[C@@H](C[C@H]5C7)C6)CC4)cc3OC)ncc2Cl)c1 (stereo partly shown) [Compound 2] | 273 nM | 45 nM | 1820 nM | 382 nM | 45 nM | 193 nM |  |  |  |  | 
C=CC(=O)Nc1cccc(CNc2nc(Nc3ccc(N4CCN(CCCNC(=O)CC5[C@H]6C[C@@H]7C[C@@H](C[C@H]5C7)C6)CC4)cc3)ncc2Cl)c1 (stereo partly shown) [Compound 3] | 490 nM | 12.8 nM | 542 nM |  |  |  | 1120 nM | 2260 nM | 72.7 nM | 1220 nM | 
C=CC(=O)Nc1cccc(CNc2nc(Nc3ccc(N4CCN(CCCCNC(=O)CC5[C@H]6C[C@@H]7C[C@@H](C[C@H]5C7)C6)CC4)cc3)ncc2Cl)c1 (stereo partly shown) [Compound 4] | 38 nM | 7.95 nM | 372 nM |  |  |  | 252 nM | 623 nM | 64.8 nM |  | 
C=CC(=O)Nc1cccc(CNc2nc(Nc3cnn(CCN4CCN(C(=O)CC5[C@H]6C[C@@H]7C[C@@H](C[C@H]5C7)C6)CC4)c3)ncc2Cl)c1 (stereo partly shown) [Compound 5] |  | 4.9 nM | 676 nM |  |  |  | 1110 nM |  | 94 nM |  | 
C=CC(=O)Nc1cccc(CNc2nc(Nc3cnn(C4CCN(C(=O)CC5[C@H]6C[C@@H]7C[C@@H](C[C@H]5C7)C6)CC4)c3)ncc2Cl)c1 (stereo partly shown) [Compound 6] |  | 5.9 nM |  |  |  |  | 2080 nM |  | 38 nM | 3180 nM | 3860 nM
C=CC(=O)Nc1cccc(CNc2nc(Nc3cnn(C4CCN(CCNC(=O)CC5[C@H]6C[C@@H]7C[C@@H](C[C@H]5C7)C6)CC4)c3)ncc2Cl)c1 (stereo partly shown) [Compound 7] |  | 6.8 nM | 794 nM |  |  |  | 954 nM | 2280 nM | 105 nM | 1440 nM | 
